According to PMC12530851, “Design, synthesis, and apoptotic antiproliferative activity of novel dihydropyrimidine-5-carbonitrile/1,2,4-oxadiazole hybrids as dual EGFR/VEGFR-2 inhibitors endowed with antioxidant activity” (RSC Advances, 2025):

Tests used:
VEGFR-2 = VEGFR-2 (Homo sapiens, UniProt P35968); assay: VEGFR-2 inhibitory assay
Experimental: The majority of signals detected by antiphosphotyrosine antibody were from EGFR because the enzyme preparation contained low impurities.
Prepare all the solutions using autoclaved, deionized water and analytical grade reagents. Prepare
and store all the reagents at room temperature (unless indicated otherwise). EDTA solution (0.5
M, pH 8.0): add 95 mL ultra-pure water to 14.612 g EDTA, adjust the pH to 8.0 using NaOH
solution, add 5 mL ultra-pure water; 1×Kinase Assay Buffer: add 25 mL HEPES solution (1 M),
water, adjust pH to 7.5 and constant volume to 500 mL using ultrapure water; 4×Stop solution (40
mM): Mix 0.8 mL of the foregoing EDTA solution, 1 mL 10×Detection Buffer and 8.2 mL ultra-
pure water; 1×Detection Buffer: Mix 1 mL 10×Detection Buffer with 9 mL water; 4×VEGFR
μM) was added to 624 μL 1×Kinase Assay Buffer and mixed; 4×ULight™-labeled JAK1
concentration 5 μM) was added to 576 μL 1×Kinase Assay Buffer and mixed; 4×ATP Solution
2×substrate/ATP Mix: 560 μL foregoing 4×ULight™-labeled JAK1 and 560 μL 4×ATP solution
and mixed (prepared before use). The assays used an ULight-labeled peptide substrate and a
Europium-W1024-labeled antiphosphotyrosine antibody. The VEGFR-2 was purchased from
Carna Biosciences, Inc. (New York, USA). The 384-well plates were obtained from PerkinElmer.
Compounds were dissolved in DMSO and diluted to 11 concentrations at a tripling rate from 2.500
5 μL 2×VEGFR-2 kinase solution (0.5 nM)
was added to 384-well plates homogeneous mixing and pre-reaction at room temperature for 30
min. Next, 2.5 μL 4×Ultra ULightTM-JAK-1(Tyr1023) Peptide (200 nM)/ATP (40 μM) was
added to the corresponding wells of a 384-well plate. Negative control: 2.5 μL/well 4×substrate/ATP mixture and 7.5 μL 1×kinase assay buffer in 384-well plate well. Positive control:
μL/well 2×VEGFR-2 kinase solution was added to the 384-well plate, The final concentration of DMSO in the mixing system was 4%. After incubation at room temperature and dark for 60 min, 5 μL 4×stop solution was added to corresponding wells to react for 5 min and then 5 μL 4×detection mix was added to the corresponding wells of a 384-well plate. The mixture was centrifugally mixed and stayed for 60 min at room temperature for color development. The plate
was read using an Envision plate reader. The inhibition rate (%) = (positive well reading-
compound well reading)/(positive well reading-negative well reading)×100. The corresponding IC50 values were calculated using GraphPad Prism 5.0.

Bax = Bax activation assay in MCF-7 cells; assay type: cell-based, human; settings: for Bax Fold change: vs untreated control
Experimental: Compounds10k and 10l were tested as caspases-3, 8, 9, Bax and p53 activators and as down-regulators of the anti-apoptotic protein Bcl2 against the MCF-7 breast cancer cell line.[41] Appendix A gives more details.
The Bcl-2 protein family, which includes pro-apoptotic proteins (Bax) and anti-apoptotic proteins (Bcl-2), primarily regulates apoptosis.[46] […] Consequently, we assessed the expression levels of Bcl-2 and Bax proteins in MCF-7 breast cancer cells treated with compounds 10k and 10l, Table 6. […]
Cells were obtained from American Type Culture Collection, cells were grown in RPMI 1640 containing 10% fetal bovine serum at 37°C, stimulated with the compounds to be tested for caspase 8/9, and lysed with Cell Extraction Buffer. This lysate was diluted in Standard Diluent Buffer over the range of the assay and measured for human active caspase-8/9 content. (Cells are Plated in a density of 1.2 – 1.8 × 10,000 cells/well in a volume of 100µl complete growth medium + 100 ul of the tested compound per well in a 96-well plate for 24 hours before the enzyme assay). […]
4.2.7. Bax activation assay
Bring all reagents, except the human Bax-α Standard, to room temperature for at least 30 minutes prior to opening. The human Bax-α Standard solution should not be left at room temperature for more than 10 minutes. All standards, controls and samples should be run in duplicate. Refer to the Assay Layout Sheet to determine the number of wells to be used and put any remaining wells with the desiccant back into the pouch and seal the ziploc. Store unused wells at 4 °C. Pipet 100 μL of Assay Buffer into the S0 (0 pg/mL standard) wells. Pipet 100 μL of Standards #1 through #6 into the appropriate wells. Pipet 100 μL of the Samples into the appropriate wells. Tap the plate gently to mix the contents. Seal the plate and incubate at room temperature on a plate shaker for 1 hour at ~500 rpm. Empty the contents of the wells and wash by adding 400 μL of wash solution to every well. Repeat the wash 4 more times for a total of 5 washes. After the final wash, empty or aspirate the wells and firmly tap the plate on a lint free paper towel to remove any remaining wash buffer.
Pipet 100 μL of yellow Antibody into each well, except the Blank. Seal the plate and incubate at room temperature on a plate shaker for 1 hour at ~500 rpm. Empty the contents of the wells and wash by adding 400 μL of wash solution to every well. Repeat the wash 4 more times for a total of 5 washes. […]
Pipet 100 μL of Substrate Solution into each well. […] Blank the plate reader against the Blank wells, read the optical density at 450 nm. […]
The concentration of Bax in the unknowns can be determined by interpolation. […]

[1] = system: Panc-1 (pancreatic cancer); assay: Antiproliferative assay, Panc-1; assay type: cell-based; settings: Homo sapiens; Panc-1 pancreatic cancer cells; read-out: Antiproliferative activity IC50 ± SEM, Panc-1
Description: The dose–response experiments established the IC50 values for the new compounds. The given findings were obtained from at least two distinct studies, each comprising three repeats per concentration. Appendix A (SI File) provides experimental details.[38,39]
The MTT assay[43] was utilized to assess the antiproliferative effects of compounds 10a–l on four human cancer cell lines: HT-29 (colon cancer), Panc-1 (pancreatic cancer), A-549 (lung cancer), and MCF-7 (breast cancer). […]
4.2.2. Assay for antiproliferative effect
To explore the antiproliferative potential of compounds propidium iodide fluorescence assay was performed using different cell lines such as Panc-1 (pancreas cancer cell line), MCF-7 (breast cancer cell line), HT-29 (colon cancer cell line) and A-549 (epithelial cancer cell line), respectively. To calculate the total nuclear DNA, a fluorescent dye (propidium iodide, PI) is used which can attach to the DNA, thus offering a quick and precise technique. PI cannot pass through the cell membrane and its signal intensity can be considered as directly proportional to quantity of cellular DNA. Cells whose cell membranes are damaged or have changed permeability are counted as dead ones. The assay was performed by seeding the cells of different cell lines at a density of 3000-7500 cells/well (in 200μl medium) in culture plates followed by incubation for 24h at 37 °C in humidified 5%CO2/95% air atmospheric conditions. The medium was removed; the compounds were added to the plates at 10 μM concentrations (in 0.1% DMSO) in triplicates, followed by incubation for 48h. DMSO (0.1%) was used as control. After incubation, medium was removed followed by the addition of PI (25 μl, 50μg/mL in water/medium) to each well of the plates. At - 80 °C, the plates were allowed to freeze for 24 h, followed by thawing at 25 °C. A fluorometer (Polar-Star BMG Tech) was used to record the readings at excitation and emission wavelengths of 530 and 620 nm for each well. The percentage cytotoxicity of compounds was calculated using […]
Where ATC= Absorbance of treated cells and AC= Absorbance of control. Erlotinib was used as positive control in the assay. […]

Sequence of VEGFR-2 (P35968 20-1356): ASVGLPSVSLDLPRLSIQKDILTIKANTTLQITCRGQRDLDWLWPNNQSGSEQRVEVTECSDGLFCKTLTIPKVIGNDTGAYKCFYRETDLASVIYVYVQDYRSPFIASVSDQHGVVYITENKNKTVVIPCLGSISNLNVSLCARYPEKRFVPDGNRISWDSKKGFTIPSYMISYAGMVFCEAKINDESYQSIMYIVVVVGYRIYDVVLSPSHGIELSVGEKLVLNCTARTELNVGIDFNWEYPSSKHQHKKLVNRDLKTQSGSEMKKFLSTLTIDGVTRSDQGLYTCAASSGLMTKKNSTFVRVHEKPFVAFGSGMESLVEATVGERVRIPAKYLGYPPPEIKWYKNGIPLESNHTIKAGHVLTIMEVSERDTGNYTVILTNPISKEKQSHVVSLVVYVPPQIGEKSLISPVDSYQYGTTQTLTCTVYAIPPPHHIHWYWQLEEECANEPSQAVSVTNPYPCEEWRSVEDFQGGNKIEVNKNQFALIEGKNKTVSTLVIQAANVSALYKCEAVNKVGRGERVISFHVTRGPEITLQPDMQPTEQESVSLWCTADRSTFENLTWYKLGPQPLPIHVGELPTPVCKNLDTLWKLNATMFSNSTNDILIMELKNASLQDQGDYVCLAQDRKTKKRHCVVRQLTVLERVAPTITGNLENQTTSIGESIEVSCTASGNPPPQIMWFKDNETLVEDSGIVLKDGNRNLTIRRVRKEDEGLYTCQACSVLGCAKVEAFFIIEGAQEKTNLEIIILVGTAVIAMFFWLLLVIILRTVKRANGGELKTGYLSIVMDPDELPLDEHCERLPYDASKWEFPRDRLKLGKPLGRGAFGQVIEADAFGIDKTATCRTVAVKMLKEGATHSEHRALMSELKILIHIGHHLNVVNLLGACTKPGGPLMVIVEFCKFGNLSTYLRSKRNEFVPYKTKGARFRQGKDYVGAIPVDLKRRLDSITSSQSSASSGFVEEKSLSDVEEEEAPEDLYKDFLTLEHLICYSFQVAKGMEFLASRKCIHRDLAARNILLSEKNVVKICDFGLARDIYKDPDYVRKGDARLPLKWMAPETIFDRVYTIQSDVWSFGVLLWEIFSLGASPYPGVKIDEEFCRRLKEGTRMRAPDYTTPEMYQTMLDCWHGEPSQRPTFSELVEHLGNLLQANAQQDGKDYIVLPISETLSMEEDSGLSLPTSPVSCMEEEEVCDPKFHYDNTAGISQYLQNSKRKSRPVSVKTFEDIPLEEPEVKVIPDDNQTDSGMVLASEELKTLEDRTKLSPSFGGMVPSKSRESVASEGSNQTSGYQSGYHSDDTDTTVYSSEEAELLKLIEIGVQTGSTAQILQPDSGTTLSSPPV

COc1ccc(-c2noc(CSc3nc(-c4ccc(OC)cc4)c(C#N)c(=O)[nH]3)n2)cc1 [Compound 10l, 2-(((3-(4-Methoxyphenyl)-1,2,4-oxadiazol-5-yl)methyl)thio)-4-(4-methoxyphenyl)-6-oxo-1,6-dihydropyrimidine-5-carbonitrile]
IC50 (VEGFR-2): 26 ± 1 nM
Bax (Bax): 505 ± 3 pg/mL
Bax Fold change (Bax): 8 fold
IC50 [1]: 26 ± 1 nM

COc1ccc(-c2nc(SCc3nc(-c4ccc(Cl)cc4)no3)[nH]c(=O)c2C#N)cc1 [Compound 10k, 2-(((3-(4-Chlorophenyl)-1,2,4-oxadiazol-5-yl)methyl)thio)-4-(4-methoxyphenyl)-6-oxo-1,6-dihydropyrimidine-5-carbonitrile]
IC50 (VEGFR-2): 21 ± 1 nM
Bax (Bax): 545 ± 3 pg/mL
Bax Fold change (Bax): 9 fold
IC50 [1]: 22 ± 1 nM
